Test results published in patent publication US11214803B2, “Modulators of YAP1 expression” (Ionis Pharmaceuticals, Inc., priority 2019, dated 2022).
Strand notation (5' to 3'): a small letter for the sugar, then the base; units joined by * are phosphorothioate-linked, units joined directly phosphodiester-linked; [ ] holds rarer units or linkages, { } end groups; capitals alone tell only the bases. k = constrained ethyl (cEt); [5mC] = 5-methylcytosine; d = 2'-deoxy (DNA)

system: Yap1 mRNA; assay: Antisense inhibition of human Yap1 in A-431 cells by cEt gapmers, single dose (Example 3, RTS36584); type: cell-based; settings: Table 8; A-431 cells, 5,000 cells per well, free uptake, 2,000 nM, approximately 48 hours; RTS36584; normalized to RIBOGREEN; Yap1 mRNA relative to untreated control cells
In short: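 Human epidermoid A-431 cells take up gapmer (2,000 nM, free uptake, ~48 h); Yap1 transcript is then assayed by qRT-PCR with RiboGreen normalization and reported relative to untreated cells. Gapmers carry cEt-modified wings, phosphorothioate linkages and 5-methylcytosine throughout.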

Row | Substance | YAP1 (% UTC)
1 | 958392 (antisense k[5mC]*kT*kA*dT*dG*dA*dG*dT*d[5mC]*dA*dA*d[5mC]*d[5mC]*kT*kG*k[5mC]) [Compound 958392] | 50
2 | 958388 (antisense kG*kG*kA*dG*dG*d[5mC]*dG*d[5mC]*dG*d[5mC]*dG*d[5mC]*dA*kT*kT*kG) [Compound 958388] | 112
3 | 958356 (antisense kT*kT*kG*dA*dA*dG*dA*dA*dG*dG*dA*dG*dT*k[5mC]*kG*kG) [Compound 958356] | 9
4 | 958396 (antisense kA*kG*kG*d[5mC]*dT*dA*dT*dT*dA*dA*dG*d[5mC]*dT*kG*kT*kT) [Compound 958396] | 131

same assay, conditions: Table 9; A-431 cells, 5,000 cells per well, free uptake, 2,000 nM, approximately 48 hours; RTS36584; normalized to RIBOGREEN; Yap1 mRNA relative to untreated control cells

Row | Substance | YAP1 (% UTC)
5 | 958556 (k[5mC]*kA*kA*d[5mC]*d[5mC]*dA*dA*d[5mC]*dT*dA*dT*dT*dA*k[5mC]*kT*kT; antisense) [Compound 958556] | 10
6 | 958601 (k[5mC]*k[5mC]*kT*dT*dT*dA*dA*dA*dG*dG*d[5mC]*dA*d[5mC]*kT*kA*k[5mC]; antisense) [Compound 958601] | 17

same assay, conditions: Table 10; A-431 cells, 5,000 cells per well, free uptake, 2,000 nM oligonucleotide, approx. 48 hours; primer probe set RTS36584; Yap1 mRNA normalized to RIBOGREEN, percent of untreated control

Row | Substance | YAP1 (% UTC)
7 | 958627 (antisense kT*kT*kG*dG*dG*d[5mC]*dA*dA*dA*dG*dT*dT*d[5mC]*k[5mC]*kT*kA) [Compound 958627] | 61
8 | 958467 (antisense kG*kG*kT*dG*dG*d[5mC]*dA*dG*d[5mC]*d[5mC]*dA*dA*dA*kA*k[5mC]*kA) [Compound 958467] | 32
9 | 958797 (antisense kA*k[5mC]*kG*dA*dG*d[5mC]*dA*d[5mC]*dA*dG*d[5mC]*dA*d[5mC]*k[5mC]*k[5mC]*kT) [Compound 958797] | 13

same assay, conditions: Table 11; A-431 cells, 5,000 cells per well, free uptake, 2,000 nM oligonucleotide, approx. 48 hours; primer probe set RTS36584; Yap1 mRNA normalized to RIBOGREEN, percent of untreated control

Row | Substance | YAP1 (% UTC)
10 | 958493 (kA*kA*kA*d[5mC]*dA*dG*dT*d[5mC]*dT*dT*d[5mC]*dA*dG*k[5mC]*k[5mC]*kT; antisense) [Compound 958493] | 16
11 | 958783 (antisense kT*kG*kA*dT*d[5mC]*dT*dG*dA*dT*dG*d[5mC]*dT*dT*kG*k[5mC]*kT) [Compound 958783] | 35
12 | 958588 (kG*kT*kG*dT*dA*d[5mC]*dT*dT*dA*dG*dG*dT*dG*kA*k[5mC]*kT; antisense) [Compound 958588] | 10
13 | 958498 (kG*kA*kG*dT*dA*dT*dG*dT*dG*dG*d[5mC]*dA*dA*kT*kA*kA; antisense) [Compound 958498] | 1
14 | 958643 (antisense kT*kA*kG*d[5mC]*dA*dA*d[5mC]*d[5mC]*d[5mC]*dA*d[5mC]*d[5mC]*d[5mC]*kT*kG*kG) [Compound 958643] | 59

same assay, conditions: Table 12; A-431 cells, 5,000 cells per well, free uptake, 2,000 nM modified oligonucleotide, approx. 48 hours; RTS36584; normalized to RIBOGREEN; Yap1 mRNA relative to untreated control cells

Row | Substance | YAP1 (% UTC)
15 | 958594 (k[5mC]*kT*k[5mC]*dT*dT*dA*dG*dG*dT*d[5mC]*dT*d[5mC]*d[5mC]*kT*kT*k[5mC]; antisense) [Compound 958594] | 8
16 | 958469 (antisense kG*kG*k[5mC]*dT*d[5mC]*dT*dA*dT*dA*dA*d[5mC]*d[5mC]*dA*kT*kG*kT) [Compound 958469] | 17
17 | 958734 (antisense kA*k[5mC]*kA*d[5mC]*dA*dT*dA*dG*dA*dG*d[5mC]*dT*dA*kA*kG*kG) [Compound 958734] | 7
18 | 958504 (kA*kT*k[5mC]*dG*dA*dG*dA*dT*dT*dT*dA*dA*dA*kT*kA*kA; antisense) [Compound 958504] | 63
19 | 958634 (antisense kT*k[5mC]*k[5mC]*dT*dT*dA*dA*d[5mC]*d[5mC]*d[5mC]*dG*dG*dG*kT*kT*kT) [Compound 958634] | 61
20 | 958719 (antisense kG*kT*kA*d[5mC]*dA*dT*dA*dA*dT*dG*dG*dG*d[5mC]*kT*kA*kA) [Compound 958719] | 49
21 | 958784 (antisense kG*kG*k[5mC]*dT*dG*dG*dA*dT*dA*dG*dA*dA*dT*kG*k[5mC]*kT) [Compound 958784] | 79

same assay, conditions: Table 13; A-431 cells, 5,000 cells per well, free uptake, 2,000 nM modified oligonucleotide, approx. 48 hours; RTS36584; normalized to RIBOGREEN; Yap1 mRNA relative to untreated control cells

Row | Substance | YAP1 (% UTC)
22 | 958680 (kA*kT*kT*dA*dA*d[5mC]*dA*d[5mC]*d[5mC]*dT*dG*dA*dG*k[5mC]*kT*kG; antisense) [Compound 958680] | 50
23 | 958530 (kG*kA*kG*d[5mC]*dA*dA*dG*dT*d[5mC]*dT*dT*dG*dT*kA*kA*kG; antisense) [Compound 958530] | 20
24 | 958720 (antisense kG*kT*k[5mC]*dT*dA*d[5mC]*dT*dA*dG*dA*dG*d[5mC]*dT*kG*k[5mC]*k[5mC]) [Compound 958720] | 12
25 | 958780 (antisense kT*k[5mC]*kA*dA*d[5mC]*dT*dA*d[5mC]*dT*dT*dT*dT*d[5mC]*kA*kG*k[5mC]) [Compound 958780] | 24

same assay, conditions: Table 26; Yap1 mRNA by 3-10-3 cEt gapmers targeting SEQ ID NO.: 1, and 2; percent of untreated control

Row | Substance | YAP1 (% UTC)
26 | 1074572 (DNA kT*kT*kA*dT*dG*dA*dA*d[5mC]*d[5mC]*dT*dA*d[5mC]*dT*k[5mC]*kA*k[5mC]) [compound 1074572] | 17
27 | 1074732 (k[5mC]*k[5mC]*kA*dG*dG*dT*dA*dT*d[5mC]*dA*d[5mC]*dA*dG*kT*kA*k[5mC]; antisense) [compound 1074732] | 30
28 | 1074348 (antisense kG*kT*kA*d[5mC]*dT*d[5mC]*dT*d[5mC]*dA*dT*d[5mC]*dT*d[5mC]*kG*kA*kG) [compound 1074348] | 100
29 | 1076300 (kA*kA*kA*dA*dA*dA*dT*dG*dG*d[5mC]*dT*dT*d[5mC]*kA*k[5mC]*kG; antisense) [compound 1076300] | 22
30 | 1075980 (k[5mC]*kA*kA*dT*dA*dT*d[5mC]*d[5mC]*dT*dA*d[5mC]*dA*d[5mC]*k[5mC]*kA*kT; antisense) [compound 1075980] | 43

same assay, conditions: Table 27; Yap1 mRNA by 3-10-3 cEt gapmers targeting SEQ ID NO.: 1, and 2; percent of untreated control

Row | Substance | YAP1 (% UTC)
31 | 1075149 (kG*k[5mC]*kG*dG*dA*dA*dA*dA*dA*dA*d[5mC]*dA*d[5mC]*k[5mC]*kT*kA; antisense) [compound 1075149] | 50
32 | 1074349 (antisense k[5mC]*kT*kG*dT*dA*d[5mC]*dT*d[5mC]*dT*d[5mC]*dA*dT*d[5mC]*kT*k[5mC]*kG) [compound 1074349] | 30
33 | 1076365 (antisense kT*kA*kA*dG*dA*dA*dG*dG*dG*d[5mC]*d[5mC]*dA*dA*kT*kG*kG) [compound 1076365] | 15
34 | 1074541 (k[5mC]*kA*k[5mC]*dT*dA*dT*d[5mC]*d[5mC]*dA*d[5mC]*dA*dG*dT*kA*kA*kT; antisense) [compound 1074541] | 23
35 | 1074893 (antisense kG*k[5mC]*kT*dG*dA*dA*dG*dT*dT*dT*dA*dG*d[5mC]*k[5mC]*kT*kG) [compound 1074893] | 78

same assay, conditions: Table 28; Yap1 mRNA as percent of untreated control; 3-10-3 cEt gapmers targeting SEQ ID NO.: 1, and 2

Row | Substance | YAP1 (% UTC)
36 | 1075790 (kT*k[5mC]*kA*dG*dA*dA*dG*dA*dA*d[5mC]*dT*d[5mC]*d[5mC]*k[5mC]*kA*kT; antisense) [compound 1075790] | 14
37 | 1076206 (k[5mC]*kA*kA*dT*dA*dA*dA*d[5mC]*dT*dT*dA*d[5mC]*d[5mC]*k[5mC]*kT*kT; antisense) [compound 1076206] | 55
38 | 1074510 (kA*kT*kA*d[5mC]*dA*dT*dT*d[5mC]*d[5mC]*dA*d[5mC]*dT*dA*k[5mC]*k[5mC]*kA; antisense) [compound 1074510] | 10

same assay, conditions: Table 29; Yap1 mRNA as percent of untreated control; 3-10-3 cEt gapmers targeting SEQ ID NO.: 1, and 2

Row | Substance | YAP1 (% UTC)
39 | 1075535 (kA*kA*kT*dT*dA*d[5mC]*d[5mC]*d[5mC]*dA*dA*dG*dG*dA*k[5mC]*kA*kG; antisense) [compound 1075535] | 53
40 | 1075695 (kG*kA*kA*dT*dA*dA*d[5mC]*dA*d[5mC]*d[5mC]*dA*d[5mC]*dA*kT*kT*kA; antisense) [compound 1075695] | 30

same assay, conditions: Table 34; Yap1 mRNA as percent of untreated control; 3-10-3 cEt gapmers targeting SEQ ID NO: 1 and 2; single dose

Row | Substance | YAP1 (% UTC)
41 | 1076180 (kA*kT*kA*dA*dT*dT*dA*dG*d[5mC]*d[5mC]*dA*dA*d[5mC]*k[5mC]*kA*k[5mC]; antisense) [compound 1076180] | 42
42 | 1076244 (k[5mC]*kA*kA*dT*dT*dT*dG*dG*dG*dA*dT*dA*dT*kT*k[5mC]*kG; antisense) [compound 1076244] | 14
43 | 1075060 (antisense kG*kT*kT*dT*dA*dA*d[5mC]*dA*dA*dT*d[5mC]*dT*d[5mC]*k[5mC]*k[5mC]*k[5mC]) [compound 1075060] | 70
44 | 1075508 (kG*kA*kA*dA*dA*dA*dG*dG*dT*dT*dT*dA*dG*kG*kG*kT; antisense) [compound 1075508] | 84

same assay, conditions: Table 35; Yap1 mRNA as percent of untreated control; 3-10-3 cEt gapmers targeting SEQ ID NO: 1 and 2; single dose

Row | Substance | YAP1 (% UTC)
45 | 1075349 (antisense kA*kT*kT*dA*dA*dA*dG*d[5mC]*dT*d[5mC]*dA*dT*dT*kG*kA*kT) [compound 1075349] | 81
46 | 1076501 (k[5mC]*kA*kT*dA*dA*d[5mC]*dA*d[5mC]*dT*dT*dA*dA*dG*kG*kT*kG; antisense) [compound 1076501] | 97
